Data set [1] in a line: Inhibition of human recombinant LDH.
In data set [2] the test system is Plasmodium falciparum. Kind of data set: Antimalarial activity against drug sensitive Plasmodium falciparum 3D7. The format is functional, organism-based.
Data set [3] in a line: Binding affinity to Plasmodium falciparum LDH assessed as inhibitory constant.
The target in a further data set is Lactate dehydrogenase (Plasmodium falciparum, UniProt Q0PJ46). Kind of data set: Inhibition of recombinant Plasmodium falciparum LDH.
Lactate dehydrogenase, sequence (Q0PJ46 whole entry): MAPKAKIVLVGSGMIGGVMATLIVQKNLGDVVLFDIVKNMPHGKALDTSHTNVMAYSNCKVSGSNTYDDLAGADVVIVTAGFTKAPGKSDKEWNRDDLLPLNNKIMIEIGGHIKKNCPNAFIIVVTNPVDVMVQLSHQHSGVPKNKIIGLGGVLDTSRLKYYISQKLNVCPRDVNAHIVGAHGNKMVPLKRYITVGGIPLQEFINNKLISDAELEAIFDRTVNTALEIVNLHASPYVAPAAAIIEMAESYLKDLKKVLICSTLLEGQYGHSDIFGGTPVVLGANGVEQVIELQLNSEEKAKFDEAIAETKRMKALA
Data set [4] concerns Plasmodium falciparum. The data set is described as follows: Antimalarial activity against drug resistant Plasmodium falciparum KI. The format is functional, organism-based.
The nature of data set [5]: Inhibition of ROMK (unknown origin). Further details: species or system Homo sapiens.
In the next data set the test system is Daudi. Kind of data set: Antiproliferative activity against human Daudi assessed as inhibition of cell proliferation by MTT assay. The format is functional, cell-based. In general terms: Formazan colour is commonly taken as a measure of viable cells.
Another data set deals with c-Myc/c-Max (Homo sapiens, UniProt P01106+P61244). The data set is described as follows: Inhibition of Myc/Max (unknown origin). Format: protein assay.
c-Myc/c-Max, sequence (P01106 whole entry): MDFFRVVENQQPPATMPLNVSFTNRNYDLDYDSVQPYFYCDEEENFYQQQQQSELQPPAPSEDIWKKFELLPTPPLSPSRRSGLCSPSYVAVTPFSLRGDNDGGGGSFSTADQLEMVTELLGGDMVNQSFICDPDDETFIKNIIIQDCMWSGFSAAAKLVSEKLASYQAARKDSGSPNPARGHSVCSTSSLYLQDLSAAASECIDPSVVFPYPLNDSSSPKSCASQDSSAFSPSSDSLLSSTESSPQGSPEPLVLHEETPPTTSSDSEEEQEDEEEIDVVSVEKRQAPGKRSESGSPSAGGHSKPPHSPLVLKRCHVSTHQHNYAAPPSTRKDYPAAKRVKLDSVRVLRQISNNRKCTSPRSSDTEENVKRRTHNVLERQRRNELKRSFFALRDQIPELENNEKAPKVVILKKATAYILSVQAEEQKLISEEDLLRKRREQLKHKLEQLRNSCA
c-Myc/c-Max, sequence (P61244 whole entry): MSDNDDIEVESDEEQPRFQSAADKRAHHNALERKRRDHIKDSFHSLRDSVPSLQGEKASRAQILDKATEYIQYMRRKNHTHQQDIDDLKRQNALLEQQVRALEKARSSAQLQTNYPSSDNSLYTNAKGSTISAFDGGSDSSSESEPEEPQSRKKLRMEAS
The test system of a further data set is HL-60. The data set is described as follows: Antiproliferative activity against (unknown origin) HL-60 assessed as inhibition of cell proliferation by MTT assay. Format: functional, cell-based. The note with it: Homo sapiens.
The species named for data set [6] is Rattus norvegicus. Kind of data set: Antihypertensive activity in spontaneously hypertensive rat model assessed as reduction in pulmonary arterial pressure. The format is functional.
The subject of the next data set is HASMC. Kind of data set: Antiproliferative activity against human HASMC cells assessed as inhibition of cell proliferation measured after 24 hrs by MTT assay. The format is functional, cell-based.
For data set [7], the species on record is Rattus norvegicus. Kind of data set: Antihypertensive activity in spontaneously hypertensive rat model assessed as reduction in systemic arterial pressure. The format is functional.
Another data set has as its system MDR1. The data set is described as follows: Efflux ratio of permeability in dog MDCK-MDR1 cells. The format is ADME, cell-based, Canis lupus familiaris.
Data set [8] in a line: Inhibition of p70S6K (unknown origin). Further details: species or system Homo sapiens.
The target in data set [9] is Ribosomal protein S6 kinase alpha-1 (Homo sapiens, UniProt Q15418). Kind of data set: Inhibition of RSK1 (unknown origin).
Ribosomal protein S6 kinase alpha-1, sequence (Q15418 whole entry): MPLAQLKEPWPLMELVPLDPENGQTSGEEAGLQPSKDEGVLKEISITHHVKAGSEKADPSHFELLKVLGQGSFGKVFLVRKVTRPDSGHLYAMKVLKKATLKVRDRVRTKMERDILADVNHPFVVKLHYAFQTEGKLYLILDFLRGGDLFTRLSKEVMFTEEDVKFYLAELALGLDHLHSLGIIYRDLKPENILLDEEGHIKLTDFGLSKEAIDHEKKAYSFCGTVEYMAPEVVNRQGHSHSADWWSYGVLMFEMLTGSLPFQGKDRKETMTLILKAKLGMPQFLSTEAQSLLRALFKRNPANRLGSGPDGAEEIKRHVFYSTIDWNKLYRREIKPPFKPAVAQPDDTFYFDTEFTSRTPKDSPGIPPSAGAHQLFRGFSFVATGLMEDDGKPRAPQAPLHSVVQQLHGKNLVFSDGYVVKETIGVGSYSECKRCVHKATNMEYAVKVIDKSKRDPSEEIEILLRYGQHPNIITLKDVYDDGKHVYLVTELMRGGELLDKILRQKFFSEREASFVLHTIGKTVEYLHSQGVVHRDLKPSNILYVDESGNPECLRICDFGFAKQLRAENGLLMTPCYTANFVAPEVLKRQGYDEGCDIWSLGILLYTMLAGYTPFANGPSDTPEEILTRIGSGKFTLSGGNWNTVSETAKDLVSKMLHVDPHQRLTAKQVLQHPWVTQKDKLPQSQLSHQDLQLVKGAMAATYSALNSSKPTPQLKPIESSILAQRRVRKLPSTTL
Data set [10] can be described thus: Inhibition of GSK3 (unknown origin). Also on record: species or system Homo sapiens.
For another data set, the system named is HeLa. Kind of data set: cells. The following applies: Homo sapiens.
The nature of data set [11]: Inhibition of HIF (unknown origin). Also on record: species or system Homo sapiens.
A short description of data set [12]: Binding affinity to human wild type HIF2alpha assessed as dissociation constant by calorimetry assay.
Data set [13] can be described thus: physchem. The following applies: octanol/water.
Description: Lipophilicity, log P of the compound
The target in data set [14] is T1, Amyloid-beta precursor protein (Homo sapiens, UniProt P05067). Kind of data set: Inhibition of amyloid beta (unknown origin) aggregation at 10 uM relative to control.
T1 sequence (P05067 whole entry): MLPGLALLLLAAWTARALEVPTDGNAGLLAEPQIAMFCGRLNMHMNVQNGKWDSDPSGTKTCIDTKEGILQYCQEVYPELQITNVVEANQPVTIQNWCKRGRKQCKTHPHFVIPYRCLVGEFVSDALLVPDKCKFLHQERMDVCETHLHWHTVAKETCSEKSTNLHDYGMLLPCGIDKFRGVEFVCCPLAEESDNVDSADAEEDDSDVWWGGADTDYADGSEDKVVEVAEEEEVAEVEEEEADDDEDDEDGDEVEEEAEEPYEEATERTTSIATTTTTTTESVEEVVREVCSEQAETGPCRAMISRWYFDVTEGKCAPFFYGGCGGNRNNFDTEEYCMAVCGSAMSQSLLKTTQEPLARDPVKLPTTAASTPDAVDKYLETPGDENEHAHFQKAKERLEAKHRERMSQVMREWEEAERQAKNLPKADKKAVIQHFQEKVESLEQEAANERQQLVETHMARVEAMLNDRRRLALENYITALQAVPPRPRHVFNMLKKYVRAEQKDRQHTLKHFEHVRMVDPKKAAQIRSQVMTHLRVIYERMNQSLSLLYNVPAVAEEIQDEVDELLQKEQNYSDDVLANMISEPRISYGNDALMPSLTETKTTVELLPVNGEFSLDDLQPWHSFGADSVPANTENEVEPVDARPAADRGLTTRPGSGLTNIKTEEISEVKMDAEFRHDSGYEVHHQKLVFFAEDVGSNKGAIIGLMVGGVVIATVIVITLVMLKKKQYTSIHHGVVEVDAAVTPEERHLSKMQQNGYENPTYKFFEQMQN
Data set [15] in a line: physchem. The note with it: octanol/water. The source holds these as a separate data set.
Description: Lipophilicity, log D of the compound
Data set [16] deals with T1, Amyloid-beta precursor protein. Kind of data set: Inhibition of amyloid beta 42 in human H4 cells. Format: cell-based.
The test system of a further data set is NT2. The data set is described as follows: Inhibition of camptothecin induced apoptosis in human NT2 cells incubated for 5 hrs in presence of camptothecin by ELISA method. Format: functional, cell-based. The note with it: NT2, 5 h. In general terms: ELISA stands for enzyme-linked immunosorbent assay.
The test system of the next data set is HCT-116. Kind of data set: cells. The following applies: Homo sapiens.
Another data set relates to HT-29. The data set is described as follows: cells. The following applies: Homo sapiens.
Another data set concerns LNCaP. Kind of data set: Antiproliferative activity against human LNCaP cells assessed as reduction in cell viability. The format is functional, cell-based.
The next data set addresses Histamine H2 receptor (Homo sapiens, UniProt P25021). The data set is described as follows: Antagonist activity at histamine H2 receptor (unknown origin) assessed as inhibition constant.
For data set [17], the target named is Aldo-keto reductase family 1 member C3 (Homo sapiens, UniProt P42330). The data set is described as follows: Inhibition of AKR1C3 (unknown origin).
Aldo-keto reductase family 1 member C3, sequence (P42330 whole entry): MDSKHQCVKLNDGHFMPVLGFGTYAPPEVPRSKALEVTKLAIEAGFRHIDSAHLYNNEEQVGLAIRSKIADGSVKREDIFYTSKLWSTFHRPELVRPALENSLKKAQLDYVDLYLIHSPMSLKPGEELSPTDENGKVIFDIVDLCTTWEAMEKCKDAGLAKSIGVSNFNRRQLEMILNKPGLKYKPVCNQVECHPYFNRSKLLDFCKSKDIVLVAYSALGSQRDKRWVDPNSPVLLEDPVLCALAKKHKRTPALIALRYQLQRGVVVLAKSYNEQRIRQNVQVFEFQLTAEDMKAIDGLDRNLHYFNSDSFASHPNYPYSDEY
A short description of data set [18]: Lipophilicity, log D of compound at pH 7.4. Format: physicochemical. The following applies: buffer.
Data set [19] concerns the target Prostaglandin G/H synthase 2 (Homo sapiens, UniProt P35354). Kind of data set: Inhibition of COX2 (unknown origin).
Data set [20] has as its target Prostaglandin G/H synthase 1 (Homo sapiens, UniProt P23219). The data set is described as follows: Inhibition of COX1 (unknown origin).
The nature of data set [21]: Dissociation constant, pKa of compound. The format is physicochemical.
A short description of data set [22]: Stability in rat assessed as intrinsic clearance. Format: ADME. The note with it: CLH.

Where only a bound is given, the exact number is not on record here.

Histamine H2 receptor, sequence (P25021 whole entry): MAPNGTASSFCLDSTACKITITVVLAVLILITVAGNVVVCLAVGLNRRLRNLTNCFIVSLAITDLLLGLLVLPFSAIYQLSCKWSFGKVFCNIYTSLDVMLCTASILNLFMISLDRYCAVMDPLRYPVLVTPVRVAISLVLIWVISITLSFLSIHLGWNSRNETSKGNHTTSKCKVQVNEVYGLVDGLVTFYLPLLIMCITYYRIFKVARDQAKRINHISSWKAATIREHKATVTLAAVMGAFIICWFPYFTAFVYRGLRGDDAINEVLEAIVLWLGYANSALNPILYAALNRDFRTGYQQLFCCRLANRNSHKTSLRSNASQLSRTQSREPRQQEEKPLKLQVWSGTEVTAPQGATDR
Prostaglandin G/H synthase 2, sequence (P35354 whole entry): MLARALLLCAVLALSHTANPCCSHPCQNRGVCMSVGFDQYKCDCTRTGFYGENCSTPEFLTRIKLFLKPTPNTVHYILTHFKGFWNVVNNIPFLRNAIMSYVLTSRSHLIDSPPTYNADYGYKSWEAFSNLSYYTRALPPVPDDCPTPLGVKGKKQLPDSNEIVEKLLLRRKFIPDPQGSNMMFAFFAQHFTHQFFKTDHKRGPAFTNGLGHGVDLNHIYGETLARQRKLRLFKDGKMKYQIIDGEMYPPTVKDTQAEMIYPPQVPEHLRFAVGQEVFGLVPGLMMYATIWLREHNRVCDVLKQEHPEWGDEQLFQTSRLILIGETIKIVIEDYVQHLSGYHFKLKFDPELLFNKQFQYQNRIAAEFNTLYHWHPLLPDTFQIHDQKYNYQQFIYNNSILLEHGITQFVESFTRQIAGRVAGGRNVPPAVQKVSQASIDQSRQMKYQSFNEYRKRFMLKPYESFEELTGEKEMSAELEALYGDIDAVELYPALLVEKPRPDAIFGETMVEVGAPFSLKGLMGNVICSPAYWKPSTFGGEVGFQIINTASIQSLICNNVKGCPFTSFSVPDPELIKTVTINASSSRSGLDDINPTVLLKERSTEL
Prostaglandin G/H synthase 1, sequence (P23219 whole entry): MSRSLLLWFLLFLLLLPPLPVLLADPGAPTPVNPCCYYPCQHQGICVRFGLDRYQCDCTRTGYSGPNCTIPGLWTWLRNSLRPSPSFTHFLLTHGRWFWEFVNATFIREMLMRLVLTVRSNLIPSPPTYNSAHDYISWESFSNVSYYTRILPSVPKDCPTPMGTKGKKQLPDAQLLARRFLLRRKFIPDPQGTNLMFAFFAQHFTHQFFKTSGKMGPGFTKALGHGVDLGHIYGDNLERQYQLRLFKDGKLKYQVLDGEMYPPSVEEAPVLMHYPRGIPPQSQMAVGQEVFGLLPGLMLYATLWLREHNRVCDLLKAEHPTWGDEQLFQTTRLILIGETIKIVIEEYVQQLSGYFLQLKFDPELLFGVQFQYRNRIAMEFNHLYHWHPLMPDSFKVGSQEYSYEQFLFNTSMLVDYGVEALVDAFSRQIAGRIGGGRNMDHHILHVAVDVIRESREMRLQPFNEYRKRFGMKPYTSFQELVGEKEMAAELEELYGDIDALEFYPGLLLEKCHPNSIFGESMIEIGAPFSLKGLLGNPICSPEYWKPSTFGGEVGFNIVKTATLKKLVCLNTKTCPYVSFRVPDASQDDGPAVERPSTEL
Description for HT-29: Antiproliferative activity against human HT-29 cells assessed as reduction in cell viability
Description for HeLa: Antiproliferative activity against human HeLa cells assessed as reduction in cell viability

A word on the IC50: it is the concentration that gives 50% inhibition. What is called EC50 is the concentration at which the effect is half-maximal. The EC90 is the concentration at which the effect reaches the 90% level. A high value points to a need for much substance. As usually defined, the Ki is a measure of affinity in units of concentration, obtained from inhibition or displacement. In the case of `O=C(O)c1nsnc1O`, the IC50 in data set [1] worked out at 10300 nM; on Lactate dehydrogenase, 140 nM. For the same compound, the values for the EC50 in the data set with Plasmodium falciparum [2] and in the data set on Plasmodium falciparum [4] were 75300 nM and 144000 nM, respectively. This compound gave an EC90 with Plasmodium falciparum [2] above 170000 nM. Besides, the Ki in data set [3] turned out to be 290 nM.

With `N#Cc1ccc(CCN2CCN(CCc3ccc4nonc4c3)CC2)cc1`, half-maximal inhibition in data set [5] (IC50) required 1900 nM.

With `O=C(O)c1ccc(-c2ccccc2Nc2ccc([N+](=O)[O-])c3nonc23)cc1`, the EC50 in the data set on Daudi worked out at 56000 nM; with HL-60, 148000 nM. Moreover, 33000 nM corresponded to half-maximal inhibition against c-Myc/c-Max (IC50).

As for `O=c1[nH]ccc2cc(OC3CCNCC3)ccc12` [SAR-407899 FREE BASE], the figures for the Activity in the data set listed under Rattus norvegicus [6] and in the data set filed under Rattus norvegicus [7] were -6 mmHg and -19 mmHg, respectively. The IC50 in the data set on HASMC came to 122 nM.

In general, efflux ratio refers to the permeability from basolateral to apical divided by that in the opposite direction, in the common usage. Take `COc1cc2c(cc1OC)CN(Cc1ccc(-c3ccc(OCCOc4nonc4OC)cc3)cc1)CC2`: the efflux ratio with MDR1 worked out at 0.6.

For `CCn1c(-c2nonc2N)nc2cncc(CNC3CCNCC3)c21`, the IC50 came to 270 nM in [8], 155 nM in data set [9] and 1900 nM in [10].

With `Nc1nonc1/C(=N/O)NCc1ccccc1`, the EC50 with HeLa is 1000 nM.

What is called Kd is a measure of binding affinity in units of concentration. For orientation: logP means a log measure of how a compound divides between an organic and an aqueous phase. Lower therefore signals lower lipophilicity. In the case of `O=[N+]([O-])c1c(Nc2cc(F)cc(Cl)c2)ccc2nonc12`, inhibition in [11] was half-maximal at 100 nM (IC50). For the same compound, the Kd in data set [12] is 80 nM. For the same compound, the logP in the data set “physchem [13]” amounted to 3.99.

By inhibition is commonly meant the share of the control response that was lost under treatment. Turning to `CC(O)c1cccc(-c2cc(NCc3ccccc3)c3nonc3c2)c1` (stereo not given), in data set [14], the inhibition is 66.3%.

What is called logD is the decadic logarithm of the distribution of all forms, ionised or not, between an organic phase and buffer at a given pH. Read a low logD as lower lipophilicity. `O=[N+]([O-])c1ccccc1` [NITROBENZENE]: in “physchem [15]”, the logD was found to be 1.6.

`O=C(O)[C@H](CC1CCC1)c1cc(Cl)c(OCC(F)(F)F)c(-c2ccc(C(F)(F)F)cc2)c1` gave an EC50 in data set [16] of 70 nM.

On to `CC(=O)N[C@@H](CC(=O)O)C(=O)N[C@@H](CCC(=O)O)C(=O)N[C@H](C(=O)N[C@H](C=O)CC(=O)O)C(C)C`, for which the EC50 in the data set with NT2 is above 100000 nM.

Regarding `COc1ccc2c(c1)c(CC(=O)O)c(C)n2C(=O)c1ccc(Cl)cc1` [INDOMETHACIN], the EC50 with HCT-116 is 137000 nM; with HT-29, 313000 nM; in the data set on LNCaP, 238000 nM.

Consider `CN(C)Cc1ccc(CSCCNc2nonc2N)o1`, for which, on Histamine H2 receptor, the Ki was found to be 26 nM.

As for `CCn1c(-c2nonc2N)nc2cnccc21`, the IC50 in data set [8] was found to be 70 nM; in data set [9], 24 nM; in data set [10], 33 nM.

The pKa is the pH at which an ionisable group is half protonated. Low values mean a group that gives up its proton readily, high ones a group that holds its proton tightly. In the case of `COc1ccc2c(c1)c(Cc1nonc1O)c(C)n2C(=O)c1ccccc1`, the EC50 worked out at 78900 nM in the data set with HCT-116, 135000 nM with HT-29 and 141000 nM in the data set with LNCaP. Further, the half-maximal inhibitory concentration (IC50) was 300 nM in data set [17], above 100000 nM in [19] and above 100000 nM in [20]. This compound had a logD in [18] of 1.8. In data set [21], this compound came in with a pKa of 4.09.

`O=C(Oc1ccccc1)c1ccccc1Nc1ccc([N+](=O)[O-])c2nonc12`: the EC50 with Daudi was 3100 nM; in the data set on HL-60 it was 9600 nM. Also, at c-Myc/c-Max, the midpoint of inhibition, the IC50, lay at 40000 nM.

Usually CLint scaled stands for a measure of how fast metabolising enzymes remove a compound, apart from limits set by blood flow. For `Nc1nonc1C(=NO)Nc1ccc(F)c(Cl)c1`, in the data set with HeLa, the midpoint of the response, the EC50, lay at 19 nM. Also, in data set [22], the CLint scaled was above 36.7 mL/min/kg.
